Source: patent US11352349B2, “Type II topoisomerase inhibitors and methods of making and using thereof” (Ohio State Innovation Foundation, priority 2017, dated 2022)
≈ marks a conversion by molar mass, not a printed value.

Key:
[1] = test system: S. aureus ATCC 29213; assay: MIC by broth microdilution (CLSI), quality control strain S. aureus ATCC 29213; assay type: cell-based, Staphylococcus aureus; conditions: Staphylococcus aureus, ATCC29213, S. aureus ATCC 29213; multiple values when multiple MIC assays were conducted
Procedure: Minimum inhibitory concentrations were determined using the quality control strain S. aureus ATCC 29213 (Table 1) by the broth microdilution method according to guidelines of the Clinical and Laboratory Standards Institute (CLSI) (Cockerill, F. R.; et al., 2012, Methods for dilution antimicrobial susceptibility tests for bacteria that grow aerobically; approved standard-ninth edition. MA07-A9. Clinical and Laboratory Standard Institute, Wayne, Pa.). […] Published quality control ranges for gepotidacin and ciprofloxacin were used to validate each assay. MICs for selected compounds were also determined using a USA 300 strain of MRSA (Hidron, et al., Lancet Infect. Dis. 2009, 9:384-392). Vancomycin was used as an additional control.

[2] = test system: USA 300 strain of MRSA; assay: MIC by broth microdilution, USA 300 strain of MRSA; assay type: cell-based, Staphylococcus aureus; conditions: Staphylococcus aureus, multiple values when multiple MIC assays were conducted, read-out: MIC USA300
Procedure: Minimum inhibitory concentrations were determined using the quality control strain S. aureus ATCC 29213 (Table 1) by the broth microdilution method according to guidelines of the Clinical and Laboratory Standards Institute (CLSI) (Cockerill, F. R.; et al., 2012, Methods for dilution antimicrobial susceptibility tests for bacteria that grow aerobically; approved standard-ninth edition. MA07-A9. Clinical and Laboratory Standard Institute, Wayne, Pa.). […] MICs for selected compounds were also determined using a USA 300 strain of MRSA (Hidron, et al., Lancet Infect. Dis. 2009, 9:384-392). Vancomycin was used as an additional control.

[3] = molecular target: T1, human topo II (Homo sapiens, UniProt P11388); assay: Topoisomerase II (alpha) decatenation assay; assay type: biochemical; conditions: activity remaining at 100 μM compound; read-out: hTopoll (% activity remaining at 100 μM)
T1 construct: purchased Inspiralis, Norwich, UK
T1 sequence (P11388 whole entry): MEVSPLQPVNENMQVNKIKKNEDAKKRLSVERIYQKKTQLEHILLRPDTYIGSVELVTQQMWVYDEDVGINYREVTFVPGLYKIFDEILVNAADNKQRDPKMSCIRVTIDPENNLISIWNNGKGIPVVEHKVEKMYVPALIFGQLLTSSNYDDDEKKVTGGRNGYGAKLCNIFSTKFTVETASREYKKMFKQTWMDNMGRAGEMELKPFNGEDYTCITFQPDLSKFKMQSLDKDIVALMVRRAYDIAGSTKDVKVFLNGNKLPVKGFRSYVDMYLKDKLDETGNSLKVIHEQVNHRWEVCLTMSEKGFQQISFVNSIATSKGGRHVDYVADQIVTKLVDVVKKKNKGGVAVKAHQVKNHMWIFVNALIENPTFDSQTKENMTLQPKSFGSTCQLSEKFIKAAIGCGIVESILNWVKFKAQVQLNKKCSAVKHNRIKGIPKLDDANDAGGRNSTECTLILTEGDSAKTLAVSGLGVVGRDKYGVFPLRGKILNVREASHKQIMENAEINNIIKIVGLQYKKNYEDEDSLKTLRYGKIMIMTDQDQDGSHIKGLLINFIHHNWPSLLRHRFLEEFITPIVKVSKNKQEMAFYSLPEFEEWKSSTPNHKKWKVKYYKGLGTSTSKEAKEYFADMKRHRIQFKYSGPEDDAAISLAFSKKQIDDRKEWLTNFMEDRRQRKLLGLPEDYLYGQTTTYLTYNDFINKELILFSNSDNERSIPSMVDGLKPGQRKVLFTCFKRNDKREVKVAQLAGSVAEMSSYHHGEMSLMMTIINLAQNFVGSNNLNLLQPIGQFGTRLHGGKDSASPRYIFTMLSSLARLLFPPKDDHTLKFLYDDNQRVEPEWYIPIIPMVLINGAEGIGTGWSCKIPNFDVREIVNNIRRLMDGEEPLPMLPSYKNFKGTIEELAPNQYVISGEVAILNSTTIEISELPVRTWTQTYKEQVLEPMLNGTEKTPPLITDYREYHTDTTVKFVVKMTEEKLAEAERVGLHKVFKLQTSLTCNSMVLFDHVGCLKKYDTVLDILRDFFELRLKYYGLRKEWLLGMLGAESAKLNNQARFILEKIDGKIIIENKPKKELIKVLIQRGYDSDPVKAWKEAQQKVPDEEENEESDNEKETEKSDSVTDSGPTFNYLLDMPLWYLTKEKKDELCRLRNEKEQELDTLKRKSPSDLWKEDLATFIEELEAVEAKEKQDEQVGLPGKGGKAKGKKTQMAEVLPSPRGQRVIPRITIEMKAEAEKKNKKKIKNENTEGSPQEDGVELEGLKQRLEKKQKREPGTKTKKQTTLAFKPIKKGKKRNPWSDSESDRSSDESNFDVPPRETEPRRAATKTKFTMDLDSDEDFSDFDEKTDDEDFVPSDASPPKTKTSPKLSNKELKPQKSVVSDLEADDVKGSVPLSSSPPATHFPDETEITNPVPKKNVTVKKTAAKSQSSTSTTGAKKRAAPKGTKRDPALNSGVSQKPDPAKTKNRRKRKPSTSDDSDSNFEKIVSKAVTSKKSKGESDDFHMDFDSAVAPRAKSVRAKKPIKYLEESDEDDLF
Procedure: (§1) A subset of analogs was used to assess the degree of inhibition of DNA gyrase or TopoIV (Inspiralis, Norwich, UK), both to establish the mechanism of action and to evaluate the relative balance of inhibitory activities (Table 1). A subset of compound was also assayed to determine the degree of inhibition of human topoisomerase II (Inspiralis, Norwich, UK)).
(§2) In all experiments, the activity of the enzymes was determined prior to the testing of the compounds and 1 unit (U) was defined as the amount of enzyme required to just fully supercoil, relax or decatenate the substrate (see explanation of gels). This amount of enzyme was initially used in determination of control inhibitor activity. These experiments were performed in duplicate.
(§3) For all assays the final DMSO concentration was 1%. 10 mM stocks of the compounds were serially diluted into 10% DMSO at 1 mM, 0.5 mM, 0.25 mM, 0.1 mM, 0.05 mM, 0.01 mM, 0.005 mM, 0.001 mM, 0.0005 mM, 0.0001 mM and 0.00005 mM. 3.0 μl of each dilution was added to a 30 μl assay.
(§4) Bands were visualised by ethidium staining for 20 minutes and destaining for 20 minutes. Gels were scanned using documentation equipment (GeneGenius, Syngene, Cambridge, UK) and % inhibition levels (where appropriate) were obtained with gel scanning software. (GeneTools, Syngene, Cambridge, UK)
Topoisomerase II (Alpha) Decatenation Assay
Each reaction was stopped by the addition of 30 μl chloroform/iso-amyl alcohol (26:1) and 30 μl Stop Dye, before being loaded on a 1.0% TAE gel run at 90V for 2 hours.

[4] = molecular target: T2, Staphylococcus aureus gyrase (Staphylococcus aureus, UniProt P0A0K8+P20831); assay: Staphylococcus aureus gyrase supercoiling assay; assay type: biochemical; conditions: S. aureus DNA gyrase supercoiling; read-out: Gyrase IC50
T2 construct: purchased Inspiralis, Norwich, UK
T2 sequence (P20831 whole entry): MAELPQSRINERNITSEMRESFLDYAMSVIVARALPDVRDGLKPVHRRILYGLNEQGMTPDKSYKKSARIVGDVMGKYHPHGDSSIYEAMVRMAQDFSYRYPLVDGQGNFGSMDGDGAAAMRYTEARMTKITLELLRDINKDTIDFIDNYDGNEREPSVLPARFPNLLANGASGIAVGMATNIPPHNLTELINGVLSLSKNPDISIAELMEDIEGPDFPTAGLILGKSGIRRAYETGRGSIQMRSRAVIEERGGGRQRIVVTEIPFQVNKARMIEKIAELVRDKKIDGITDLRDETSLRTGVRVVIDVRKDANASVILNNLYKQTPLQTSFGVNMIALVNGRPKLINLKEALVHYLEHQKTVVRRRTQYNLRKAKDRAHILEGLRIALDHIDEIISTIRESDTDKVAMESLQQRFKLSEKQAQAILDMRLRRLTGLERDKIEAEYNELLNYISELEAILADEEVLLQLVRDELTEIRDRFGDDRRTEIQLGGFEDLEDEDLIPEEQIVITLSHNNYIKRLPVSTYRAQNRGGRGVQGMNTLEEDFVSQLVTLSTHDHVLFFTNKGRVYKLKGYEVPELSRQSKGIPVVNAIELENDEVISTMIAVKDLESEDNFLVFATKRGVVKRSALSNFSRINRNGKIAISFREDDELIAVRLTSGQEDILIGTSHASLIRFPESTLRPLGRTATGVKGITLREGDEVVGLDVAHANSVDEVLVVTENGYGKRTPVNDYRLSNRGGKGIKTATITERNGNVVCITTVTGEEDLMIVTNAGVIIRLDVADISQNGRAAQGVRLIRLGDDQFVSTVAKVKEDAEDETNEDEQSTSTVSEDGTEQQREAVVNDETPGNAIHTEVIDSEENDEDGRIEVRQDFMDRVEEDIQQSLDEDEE
T2 sequence (P0A0K8 whole entry): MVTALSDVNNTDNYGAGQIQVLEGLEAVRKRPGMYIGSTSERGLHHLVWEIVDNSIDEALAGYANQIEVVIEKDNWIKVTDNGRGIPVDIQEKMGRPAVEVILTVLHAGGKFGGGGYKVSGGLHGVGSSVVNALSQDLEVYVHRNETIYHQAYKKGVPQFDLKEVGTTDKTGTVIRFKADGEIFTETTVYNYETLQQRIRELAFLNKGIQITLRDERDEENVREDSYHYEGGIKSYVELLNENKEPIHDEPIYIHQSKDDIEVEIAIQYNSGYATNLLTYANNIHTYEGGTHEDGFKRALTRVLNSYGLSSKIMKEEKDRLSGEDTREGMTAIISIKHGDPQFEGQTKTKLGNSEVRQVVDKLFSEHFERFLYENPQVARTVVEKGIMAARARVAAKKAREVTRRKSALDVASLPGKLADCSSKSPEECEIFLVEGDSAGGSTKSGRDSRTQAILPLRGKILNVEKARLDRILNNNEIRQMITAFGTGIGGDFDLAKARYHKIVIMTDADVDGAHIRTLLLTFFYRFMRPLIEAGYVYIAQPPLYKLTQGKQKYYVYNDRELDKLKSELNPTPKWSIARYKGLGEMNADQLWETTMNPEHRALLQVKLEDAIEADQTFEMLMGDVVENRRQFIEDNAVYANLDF
Procedure: as §1, §2, §3, §4
Staphylococcus aureus gyrase supercoiling
1 U of DNA gyrase was incubated with 0.5 μg of relaxed pBR322 DNA in a 30 μl reaction at 37° C. for 30 minutes under the following conditions: 40 mM HEPES. KOH (pH 7.6), 10 mM magnesium acetate, 10 mM DTT, 2 mM ATP, 500 mM potassium glutamate and 0.05 mg/ml BSA.
Each reaction was stopped by the addition of 30 μl chloroform/iso-amyl alcohol (26:1) and 30 μl Stop Dye (40% sucrose (w/v), 100 mM Tris.HCl (pH 7.5), 10 mM EDTA, 0.5 μg/ml bromophenol blue), before being loaded on a 1.0% TAE gel run at 70V for 2 hours.

[5] = molecular target: T3, Staphylococcus aureus Topo IV (Staphylococcus aureus, UniProt P0C1S7+P0C1U9); assay: Staphylococcus aureus Topo IV decatenation assay; assay type: biochemical; conditions: S. aureus Topo IV decatenation; read-out: TopolV Decat IC50
T3 construct: purchased Inspiralis, Norwich, UK
T3 sequence (P0C1S7 whole entry): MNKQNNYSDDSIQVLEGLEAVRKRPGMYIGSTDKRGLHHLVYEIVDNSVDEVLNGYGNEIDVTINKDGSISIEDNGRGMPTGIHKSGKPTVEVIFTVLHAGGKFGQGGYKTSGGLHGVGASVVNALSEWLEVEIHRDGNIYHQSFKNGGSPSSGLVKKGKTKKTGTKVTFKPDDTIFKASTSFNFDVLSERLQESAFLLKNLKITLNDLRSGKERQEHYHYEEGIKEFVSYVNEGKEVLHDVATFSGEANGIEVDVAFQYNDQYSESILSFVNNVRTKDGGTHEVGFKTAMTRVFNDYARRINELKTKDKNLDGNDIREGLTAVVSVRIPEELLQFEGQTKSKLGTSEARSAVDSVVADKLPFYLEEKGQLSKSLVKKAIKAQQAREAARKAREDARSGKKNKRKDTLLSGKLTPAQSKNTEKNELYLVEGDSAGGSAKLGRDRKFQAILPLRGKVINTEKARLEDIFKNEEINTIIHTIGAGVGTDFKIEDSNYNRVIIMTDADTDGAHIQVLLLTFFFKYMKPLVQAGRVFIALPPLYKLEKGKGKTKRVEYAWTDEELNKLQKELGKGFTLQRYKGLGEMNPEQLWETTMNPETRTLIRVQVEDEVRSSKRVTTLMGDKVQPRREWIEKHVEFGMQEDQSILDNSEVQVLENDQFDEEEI
T3 sequence (P0C1U9 whole entry): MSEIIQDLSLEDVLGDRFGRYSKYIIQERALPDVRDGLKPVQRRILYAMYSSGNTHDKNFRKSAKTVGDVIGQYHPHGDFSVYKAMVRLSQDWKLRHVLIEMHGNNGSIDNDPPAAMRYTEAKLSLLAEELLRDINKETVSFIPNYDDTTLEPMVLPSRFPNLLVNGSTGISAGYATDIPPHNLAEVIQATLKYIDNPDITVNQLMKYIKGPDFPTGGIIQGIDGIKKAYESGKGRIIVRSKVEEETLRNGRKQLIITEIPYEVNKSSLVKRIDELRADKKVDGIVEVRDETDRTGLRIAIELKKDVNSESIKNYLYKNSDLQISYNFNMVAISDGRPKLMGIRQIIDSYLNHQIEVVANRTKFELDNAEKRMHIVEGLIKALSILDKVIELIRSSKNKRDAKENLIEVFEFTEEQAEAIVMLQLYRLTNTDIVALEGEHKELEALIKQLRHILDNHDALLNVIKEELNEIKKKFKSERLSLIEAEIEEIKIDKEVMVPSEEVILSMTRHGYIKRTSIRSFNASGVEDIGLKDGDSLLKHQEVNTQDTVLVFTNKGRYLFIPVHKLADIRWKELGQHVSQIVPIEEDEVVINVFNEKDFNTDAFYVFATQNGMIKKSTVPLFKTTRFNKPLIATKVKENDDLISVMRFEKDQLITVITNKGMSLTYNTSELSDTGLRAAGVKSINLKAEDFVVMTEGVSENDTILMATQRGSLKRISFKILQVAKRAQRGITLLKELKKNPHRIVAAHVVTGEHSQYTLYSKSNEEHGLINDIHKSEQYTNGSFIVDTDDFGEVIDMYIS
Procedure: as §1, §2, §3, §4
Staphylococcus aureus Topo IV Decatenation Assay
1 U of Topo IV was incubated with 200 ng kDNA DNA in a 30 μl reaction at 37° C. for 30 minutes under the following conditions: 50 mM Tris.HCl (7.5), 5 mM MgCl2, 5 mM DTT, 1.5 mM ATP, 350 mM potassium glutamate and 0.05 mg/ml BSA.
Each reaction was stopped by the addition of 30 μl chloroform/iso-amyl alcohol (26:1) and 30 μl Stop Dye, before being loaded on a 1.0% TAE gel run at 70V for 2 hours.

Row | SMILES | MIC [1] | MIC [2] | remaining activity at 100 µM [3] | IC50 [4] | IC50 [5]
1 | COc1ccc2nccc(CC[C@H]3OC[C@H](NCc4ccc(C)cc4)CO3)c2c1 [AB-0044] | 1 µg/mL (≈ 2.55 µM) | 1 µg/mL (≈ 2.55 µM) | – | – | –
2 | COc1ccc2ncc(F)c(C(O)C[C@H]3OC[C@H](NCc4cc5c(cn4)OCCO5)CO3)c2c1 (some centres unmarked) [AB-0046] | 0.5 µg/mL (≈ 1.06 µM) | 1 µg/mL (≈ 2.12 µM) | 88.3% | 0.6 µM | –
3 | COc1ccc2nccc(CC[C@H]3OC[C@H](NCc4ccc(C#N)cc4)CO3)c2c1 [AB-0047, 4-(((2-(2-(6-methoxyquinolin-4-yl)ethyl)-trans-1,3-dioxan-5-yl)amino)methyl)benzonitrile] | > 64 µg/mL | – | 88.4% | 13.3 µM | > 100 µM
4 | COc1ccc2nccc(CC[C@H]3OC[C@H](NCc4ccc(C(F)(F)F)cc4)CO3)c2c1 [AB-0071, 2-(2-(6-methoxyquinolin-4-yl)ethyl)-N-(4-(trifluoromethyl)benzyl)-trans-1,3-dioxan-5-amine] | 1 µg/mL (≈ 2.24 µM) | 2 µg/mL (≈ 4.48 µM) | – | – | –
5 | COc1ccc2ncc(=O)n(CC(O)[C@H]3OC[C@H](NCc4cc5c(cn4)OCCO5)CO3)c2c1 (stereo partly drawn) [AB-0077, 1-(2-(5-(((2,3-dihydro-[1,4]dioxino[2,3-c]pyridin-7-yl)methyl)amino)-trans-1,3-dioxan-2-yl)-2-hydroxyethyl)-7-methoxyquinoxalin-2(1H)-one] | 1 µg/mL (≈ 2.13 µM) | 2 µg/mL (≈ 4.25 µM) | – | – | –
6 | COc1ccc2nccc(CC[C@H]3OC[C@H](NCc4ccc5c(c4)OCO5)CO3)c2c1 [AB-0079, N-(benzo[d][1,3]dioxol-5-ylmethyl)-2-(2-(6-methoxyquinolin-4-yl)ethyl)-trans-1,3-dioxan-5-amine] | 2 µg/mL (≈ 4.73 µM) | 4 µg/mL (≈ 9.47 µM) | – | – | –
7 | COc1ccc2nccc(CC[C@H]3OC[C@H](NCc4ccc5c(c4)OC(F)(F)O5)CO3)c2c1 [AB-0080, N-((2,2-difluorobenzo[d][1,3]dioxol-5-yl)methyl)-2-(2-(6-methoxyquinolin-4-yl)ethyl)-trans-1,3-dioxan-5-amine] | 1 µg/mL (≈ 2.18 µM) | 2 µg/mL (≈ 4.36 µM) | – | – | –
8 | COc1ccc2nccc(CC[C@H]3OC[C@H](NCc4ccc(OC(F)(F)F)cc4)CO3)c2c1 [AB-0081, 2-(2-(6-methoxyquinolin-4-yl)ethyl)-N-(4-(trifluoromethoxy)benzyl)-trans-1,3-dioxan-5-amine] | 2 µg/mL (≈ 4.32 µM) | 4 µg/mL (≈ 8.65 µM) | – | – | –
9 | COc1ccc2nccc(CC[C@H]3OC[C@H](NCc4ccc(C(C)(C)C)cc4)CO3)c2c1 [AB-0082, N-(4-(tert-butyl)benzyl)-2-(2-(6-methoxyquinolin-4-yl)ethyl)-trans-1,3-dioxan-5-amine] | 2 µg/mL (≈ 4.6 µM) | 4 µg/mL (≈ 9.2 µM) | – | – | –
10 | COc1ccc2ncc(F)c(C(O)C[C@H]3OC[C@H](NCc4cc5c(cn4)OCCO5)CO3)c2n1 (stereo partly drawn) [AB-0083, 2-(5-(((2,3-dihydro-[1,4]dioxino[2,3-c]pyridin-7-yl)methyl)amino)-trans-1,3-dioxan-2-yl)-1-(3-fluoro-6-methoxy-1,5-naphthyridin-4-yl)ethanol] | 0.5 µg/mL (≈ 1.06 µM) | 1 µg/mL (≈ 2.12 µM) | – | – | –
11 | COc1ccc2nccc(CC[C@H]3OC[C@H](NCc4ccc(C(F)F)cc4)CO3)c2c1 [AB-0085, N-(4-(difluoromethyl)benzyl)-2-(2-(6-methoxyquinolin-4-yl)ethyl)-trans-1,3-dioxan-5-amine] | 2 µg/mL (≈ 4.67 µM) | 4 µg/mL (≈ 9.34 µM) | – | – | –
